Data on two compounds can be found in ChEMBL document CHEMBL6127116, “Discovery of Potent and Selective Blockers Targeting the Epilepsy-Associated KNa1.1 Channel” (J Med Chem, 2024).

The nature of data set [1]: Drug concentration in male ICR mouse brain at 50 mg/kg, po measured after 0.5 hrs by LC-MS/MS analysis. The format is ADME, organism-based. The conditions noted are these: read-out: Ct.
The nature of data set [2]: Ratio of drug concentration in male ICR mouse brain to plasma at 10 mg/kg, iv measured after 2 hrs by LC-MS/MS analysis. Type of data set: ADME, organism-based. The conditions noted are these: brain and plasma, read-out: BPR.
Data set [3] is described as follows: Inhibition of human KNa1.1 Y796H mutant expressed in HEK293T cells by patch-clamp electrophysiology method. Type of data set: cell-based. The conditions noted are these: HEK-293T.
Data set [4] is described as follows: Cmax in male ICR mouse at 50 mg/kg, po administered as single dose measured upto 24 hrs by HPLC analysis. As to conditions: in vivo; call rule not given here. The format is ADME, organism-based.
Data set [5] is described as follows: Ratio of drug concentration in male ICR mouse brain to plasma at 10 mg/kg, iv measured after 0.5 hrs by LC-MS/MS analysis. Type of data set: ADME, organism-based. The conditions noted are these: brain and plasma, read-out: BPR.
Data set [6] can be described thus: MRT (0 to t) in male ICR mouse at 10 mg/kg, iv administered as single dose measured upto 24 hrs by HPLC analysis. The format is ADME, organism-based. As to conditions: in vivo.
The nature of data set [7]: MRT (0 to t) in male ICR mouse at 50 mg/kg, po administered as single dose measured upto 24 hrs by HPLC analysis. Type of data set: ADME, organism-based. As to conditions: in vivo.
Data set [8] concerns the target T1, Voltage-gated inwardly rectifying potassium channel KCNH2 (Homo sapiens, UniProt Q12809). Put plainly: Inhibition of human ERG expressed in Xenopus laevis oocytes by two-electrode voltage clamp method. The format is toxicity, cell-based, Oocyte.
Data set [9] is described as follows: Drug concentration in male ICR mouse plasma at 50 mg/kg, po measured after 0.5 hrs by LC-MS/MS analysis. Type of data set: ADME, organism-based.
Data set [10] in a line: Drug concentration in male ICR mouse plasma at 10 mg/kg, iv measured after 0.5 hrs by LC-MS/MS analysis. The format is ADME, organism-based.
Data set [11] in a line: Half life in male ICR mouse at 50 mg/kg, po administered as single dose measured upto 24 hrs by HPLC analysis. As to conditions: in vivo. Type of data set: ADME, organism-based.
Data set [12] has as its target T2, Potassium channel subfamily T member 1 (Homo sapiens, UniProt Q5JUK3).
T2 sequence (Q5JUK3 whole entry): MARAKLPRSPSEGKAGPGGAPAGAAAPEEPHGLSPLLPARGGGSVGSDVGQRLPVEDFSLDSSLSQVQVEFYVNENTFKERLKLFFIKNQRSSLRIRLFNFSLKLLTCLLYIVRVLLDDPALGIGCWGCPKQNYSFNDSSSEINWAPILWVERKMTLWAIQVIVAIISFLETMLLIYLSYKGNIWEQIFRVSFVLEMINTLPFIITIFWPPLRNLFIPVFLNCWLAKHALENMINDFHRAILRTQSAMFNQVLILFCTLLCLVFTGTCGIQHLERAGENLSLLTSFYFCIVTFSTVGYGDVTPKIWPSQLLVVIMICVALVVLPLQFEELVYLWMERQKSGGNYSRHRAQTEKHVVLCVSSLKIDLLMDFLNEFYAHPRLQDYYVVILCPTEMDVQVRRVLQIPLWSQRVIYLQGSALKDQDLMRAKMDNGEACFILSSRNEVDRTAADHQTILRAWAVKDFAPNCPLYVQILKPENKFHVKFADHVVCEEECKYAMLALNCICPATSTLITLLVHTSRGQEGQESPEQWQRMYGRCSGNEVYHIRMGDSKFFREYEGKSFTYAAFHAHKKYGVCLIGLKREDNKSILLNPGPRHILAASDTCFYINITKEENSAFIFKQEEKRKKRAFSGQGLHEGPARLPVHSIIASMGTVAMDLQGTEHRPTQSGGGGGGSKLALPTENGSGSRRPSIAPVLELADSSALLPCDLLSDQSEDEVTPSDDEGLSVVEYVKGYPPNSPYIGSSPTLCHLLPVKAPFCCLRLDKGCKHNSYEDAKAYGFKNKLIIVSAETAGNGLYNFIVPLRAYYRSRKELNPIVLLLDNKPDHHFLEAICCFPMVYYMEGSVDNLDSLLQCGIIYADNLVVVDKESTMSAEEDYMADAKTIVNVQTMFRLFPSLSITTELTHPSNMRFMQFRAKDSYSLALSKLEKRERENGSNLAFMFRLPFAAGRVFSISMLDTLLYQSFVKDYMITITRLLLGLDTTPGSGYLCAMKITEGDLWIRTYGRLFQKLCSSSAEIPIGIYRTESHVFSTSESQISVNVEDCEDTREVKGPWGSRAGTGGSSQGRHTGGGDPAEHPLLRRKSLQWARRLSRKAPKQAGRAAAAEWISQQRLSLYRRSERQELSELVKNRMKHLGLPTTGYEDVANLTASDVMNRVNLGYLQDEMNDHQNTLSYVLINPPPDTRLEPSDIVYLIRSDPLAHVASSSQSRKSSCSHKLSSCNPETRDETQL
Put plainly: Inhibition of wild type human KNa1.1 expressed in HEK293T cells by patch-clamp electrophysiology method. Type of data set: cell-based.

Data set [13] concerns the target Sodium channel protein type 5 subunit alpha (Homo sapiens, UniProt Q14524). Put plainly: Inhibition of Nav1.5 (unknown origin) expressed in HEK293T cells at 10 uM by patch-clamp electrophysiology method. Type of data set: cell-based.
Data set [14] is described as follows: Ratio of drug concentration in male ICR mouse brain to plasma at 50 mg/kg, po measured after 0.5 hrs by LC-MS/MS analysis. The format is ADME, organism-based. As to conditions: brain and plasma, read-out: BPR.
Data set [15] is described as follows: Half life in male ICR mouse at 10 mg/kg, iv administered as single dose measured upto 24 hrs by HPLC analysis. As to conditions: in vivo. Type of data set: ADME, organism-based.
Data set [16] is described as follows: Volume of distribution at steady state in male ICR mouse at 10 mg/kg, iv administered as single dose measured upto 24 hrs by HPLC analysis. Type of data set: ADME, organism-based. As to conditions: in vivo, read-out: Vdss.
A short description of data set [17]: Drug concentration in male ICR mouse plasma at 10 mg/kg, iv measured after 2 hrs by LC-MS/MS analysis. Type of data set: ADME, organism-based.
Data set [18] can be described thus: AUC (0 to t) in male ICR mouse at 10 mg/kg, iv administered as single dose measured upto 24 hrs by HPLC analysis. The conditions noted are these: in vivo. The format is ADME, organism-based.
Data set [19] can be described thus: Drug concentration in male ICR mouse brain at 10 mg/kg, iv measured after 2 hrs by LC-MS/MS analysis. The format is ADME, organism-based. As to conditions: read-out: Ct.
A short description of data set [20]: AUC (0 to t) in male ICR mouse at 50 mg/kg, po administered as single dose measured upto 24 hrs by HPLC analysis. Type of data set: ADME, organism-based. As to conditions: in vivo.
Data set [21] addresses T1, Voltage-gated inwardly rectifying potassium channel KCNH2. Kind of data set: Inhibition of human ERG expressed in Xenopus laevis oocytes at 10 uM by two-electrode voltage clamp method. Type of data set: toxicity, cell-based. As to conditions: oocyte.
A short description of data set [22]: Inhibition of KNa1.1 F327I mutant (unknown origin) expressed in HEK293T cells by patch-clamp electrophysiology method. Type of data set: cell-based. As to conditions: Homo sapiens, HEK-293T.
A short description of data set [23]: Clearance in male ICR mouse at 10 mg/kg, iv administered as single dose measured upto 24 hrs by HPLC analysis. The conditions noted are these: in vivo. The format is ADME, organism-based.
Data set [24] can be described thus: Tmax in male ICR mouse at 50 mg/kg, po administered as single dose measured upto 24 hrs by HPLC analysis. Type of data set: ADME, organism-based. The conditions noted are these: in vivo.
Data set [25] can be described thus: Ratio of drug concentration in male ICR mouse brain to plasma at 50 mg/kg, po measured after 2 hrs by LC-MS/MS analysis. Type of data set: ADME, organism-based. The conditions noted are these: brain and plasma, read-out: BPR.
Data set [26] in a line: Oral bioavailability in male ICR mouse at 50 mg/kg administered as single dose measured upto 24 hrs by HPLC analysis. Type of data set: ADME, organism-based. As to conditions: in vivo.
Data set [27] concerns HEK293. Kind of data set: Cytotoxicity against HEK293 cells assessed as reduction in cell viability at 10 uM by CCK8 method relative to control. Type of data set: toxicity, cell-based. As to conditions: human, hek293, 10 µM.
The nature of data set [28]: Drug concentration in male ICR mouse plasma at 50 mg/kg, po measured after 2 hrs by LC-MS/MS analysis. Type of data set: ADME, organism-based.
Data set [29] in a line: Tmax in male ICR mouse at 10 mg/kg, iv administered as single dose measured upto 24 hrs by HPLC analysis. The format is ADME, organism-based. As to conditions: in vivo.
The nature of data set [30]: Drug concentration in male ICR mouse brain at 10 mg/kg, iv measured after 0.5 hrs by LC-MS/MS analysis. Type of data set: ADME, organism-based. As to conditions: read-out: Ct.
The nature of data set [31]: Cmax in male ICR mouse at 10 mg/kg, iv administered as single dose measured upto 24 hrs by HPLC analysis. The conditions noted are these: in vivo. The format is ADME, organism-based.
Data set [32] can be described thus: Drug concentration in male ICR mouse brain at 50 mg/kg, po measured after 2 hrs by LC-MS/MS analysis. The format is ADME, organism-based. As to conditions: read-out: Ct.
Data set [33] addresses T2, Potassium channel subfamily T member 1. Put plainly: Inhibition of human SLACK expressed in HEK293 cells.

T1 sequence (Q12809 whole entry): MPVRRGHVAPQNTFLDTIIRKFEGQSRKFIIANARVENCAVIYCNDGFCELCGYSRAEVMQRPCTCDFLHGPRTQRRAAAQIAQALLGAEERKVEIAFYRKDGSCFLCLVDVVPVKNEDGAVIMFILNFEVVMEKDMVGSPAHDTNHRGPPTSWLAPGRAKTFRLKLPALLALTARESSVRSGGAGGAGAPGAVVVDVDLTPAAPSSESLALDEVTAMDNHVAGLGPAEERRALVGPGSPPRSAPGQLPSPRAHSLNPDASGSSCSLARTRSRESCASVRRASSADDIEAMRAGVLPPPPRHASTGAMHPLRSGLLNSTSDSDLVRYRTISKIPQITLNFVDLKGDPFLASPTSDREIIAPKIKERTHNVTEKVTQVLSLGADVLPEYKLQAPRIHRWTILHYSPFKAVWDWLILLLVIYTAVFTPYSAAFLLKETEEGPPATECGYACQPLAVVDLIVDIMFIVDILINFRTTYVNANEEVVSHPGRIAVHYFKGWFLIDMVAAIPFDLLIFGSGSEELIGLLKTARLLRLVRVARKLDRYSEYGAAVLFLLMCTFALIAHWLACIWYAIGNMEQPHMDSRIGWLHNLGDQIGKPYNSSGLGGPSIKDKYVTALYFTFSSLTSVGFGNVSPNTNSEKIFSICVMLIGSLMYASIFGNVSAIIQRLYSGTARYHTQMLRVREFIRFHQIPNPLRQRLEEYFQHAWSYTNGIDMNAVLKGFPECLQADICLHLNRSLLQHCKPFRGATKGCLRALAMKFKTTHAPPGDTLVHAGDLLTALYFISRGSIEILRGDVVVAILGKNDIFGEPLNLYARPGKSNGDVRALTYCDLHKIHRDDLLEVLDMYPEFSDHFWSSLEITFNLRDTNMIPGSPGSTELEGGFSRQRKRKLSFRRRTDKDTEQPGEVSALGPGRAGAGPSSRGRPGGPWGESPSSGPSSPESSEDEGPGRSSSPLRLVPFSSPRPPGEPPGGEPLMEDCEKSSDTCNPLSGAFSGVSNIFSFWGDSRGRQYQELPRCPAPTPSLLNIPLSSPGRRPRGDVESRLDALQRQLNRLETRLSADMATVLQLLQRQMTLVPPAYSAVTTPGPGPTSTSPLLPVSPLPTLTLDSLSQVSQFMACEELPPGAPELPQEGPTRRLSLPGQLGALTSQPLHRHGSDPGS
Sequence of Sodium channel protein type 5 subunit alpha (Q14524 whole entry): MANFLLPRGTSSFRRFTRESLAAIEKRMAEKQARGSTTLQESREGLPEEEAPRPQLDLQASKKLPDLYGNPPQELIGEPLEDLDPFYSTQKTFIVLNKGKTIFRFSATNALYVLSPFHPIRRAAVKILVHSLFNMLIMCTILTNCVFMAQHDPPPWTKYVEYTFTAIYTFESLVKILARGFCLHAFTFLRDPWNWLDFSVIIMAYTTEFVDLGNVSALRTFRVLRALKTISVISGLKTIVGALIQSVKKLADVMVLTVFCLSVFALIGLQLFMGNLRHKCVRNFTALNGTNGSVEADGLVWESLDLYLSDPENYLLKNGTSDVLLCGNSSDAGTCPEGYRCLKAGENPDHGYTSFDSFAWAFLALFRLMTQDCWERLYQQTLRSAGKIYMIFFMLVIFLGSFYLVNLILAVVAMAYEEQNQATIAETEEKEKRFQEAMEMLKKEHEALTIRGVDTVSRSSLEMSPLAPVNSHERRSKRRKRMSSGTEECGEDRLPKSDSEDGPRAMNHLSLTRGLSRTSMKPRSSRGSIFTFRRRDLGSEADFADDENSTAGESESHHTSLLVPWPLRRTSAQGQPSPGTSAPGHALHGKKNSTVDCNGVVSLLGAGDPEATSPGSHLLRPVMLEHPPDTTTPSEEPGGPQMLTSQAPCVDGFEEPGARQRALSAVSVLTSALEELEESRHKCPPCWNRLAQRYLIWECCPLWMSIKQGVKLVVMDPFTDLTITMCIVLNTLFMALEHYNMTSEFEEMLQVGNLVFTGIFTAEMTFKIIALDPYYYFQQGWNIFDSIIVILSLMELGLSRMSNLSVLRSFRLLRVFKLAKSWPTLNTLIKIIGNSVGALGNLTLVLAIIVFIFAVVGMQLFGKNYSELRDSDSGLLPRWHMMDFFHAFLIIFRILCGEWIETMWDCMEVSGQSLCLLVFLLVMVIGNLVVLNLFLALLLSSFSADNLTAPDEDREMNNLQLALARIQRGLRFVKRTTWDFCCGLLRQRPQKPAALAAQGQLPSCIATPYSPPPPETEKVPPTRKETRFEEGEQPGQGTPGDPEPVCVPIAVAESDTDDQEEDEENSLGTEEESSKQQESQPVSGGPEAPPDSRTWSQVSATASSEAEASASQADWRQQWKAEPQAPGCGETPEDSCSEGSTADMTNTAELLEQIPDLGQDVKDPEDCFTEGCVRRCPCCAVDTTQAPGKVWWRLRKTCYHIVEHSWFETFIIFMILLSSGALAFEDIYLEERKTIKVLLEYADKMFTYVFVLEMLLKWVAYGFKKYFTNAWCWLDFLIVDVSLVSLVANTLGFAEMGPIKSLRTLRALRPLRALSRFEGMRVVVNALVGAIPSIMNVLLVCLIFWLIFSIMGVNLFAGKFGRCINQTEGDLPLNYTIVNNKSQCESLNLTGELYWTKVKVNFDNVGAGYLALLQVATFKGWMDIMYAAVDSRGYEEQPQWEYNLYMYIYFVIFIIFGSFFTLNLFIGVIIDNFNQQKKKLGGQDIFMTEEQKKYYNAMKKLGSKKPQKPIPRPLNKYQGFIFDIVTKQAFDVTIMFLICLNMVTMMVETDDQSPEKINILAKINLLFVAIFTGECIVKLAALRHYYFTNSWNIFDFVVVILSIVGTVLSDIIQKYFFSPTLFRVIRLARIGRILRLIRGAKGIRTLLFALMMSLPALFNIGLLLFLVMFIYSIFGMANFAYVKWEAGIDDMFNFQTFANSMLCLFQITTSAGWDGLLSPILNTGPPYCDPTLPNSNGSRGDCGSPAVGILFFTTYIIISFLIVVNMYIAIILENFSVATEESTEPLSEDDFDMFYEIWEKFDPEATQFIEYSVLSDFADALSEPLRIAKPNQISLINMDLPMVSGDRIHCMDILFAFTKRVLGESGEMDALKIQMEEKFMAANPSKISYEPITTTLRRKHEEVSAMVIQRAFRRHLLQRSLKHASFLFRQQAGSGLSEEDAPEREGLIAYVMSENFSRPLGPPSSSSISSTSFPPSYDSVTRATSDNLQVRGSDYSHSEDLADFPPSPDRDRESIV

Regarding `c1ccc(COc2ccc3ccccc3c2CCC2CCNCC2)cc1`, the concentration at 0.5 h in data set [1] amounted to 604 ng/mL; in [9], 1290 ng/mL; in data set [10] it was 1030 ng/mL; in data set [30], 8010 ng/mL. In addition, the results for the Kp at 2 h in [2] and in data set [25] were 5.51 and 1.34, respectively. Moreover, the IC50 in data set [3] was found to be 400 nM; in data set [8], 90.2 µM; in data set [12] it was 3.43 µM; in data set [22] it was 24.2 µM. In addition, the highest concentration (Cmax) amounted to 1290 ng/mL in data set [4] and 2180 ng/mL in data set [31]. For the same compound, the Kp at 0.5 h was 7.8 in data set [5] and 0.47 in data set [14]. Moreover, the mean residence time (MRT last) at 24 h in data set [6] stood at 3.12 h; in [7], 4.96 h. Further, the half-life was 187 min in data set [11] and 148 min in [15]. In addition, the “inhibition (INH)” value in data set [13] and in data set [21] was “Not Active” in each case. In [16], the Vd was 6.91 L/kg. Moreover, the concentration at 2 h was 605 ng/mL in data set [17], 3330 ng/mL in [19], 893 ng/mL in data set [28] and 1200 ng/mL in data set [32]. In addition, the AUC(0-t) at 24 h is 4550 ng·h/mL in data set [18] and 7450 ng·h/mL in data set [20]. Moreover, in [23], the clearance was 36.6 mL/min/kg. The figures for the Tmax in [24] and in data set [29] were 30 min and 4.8 min, respectively. In addition, the bioavailability in data set [26] turned out to be 32.8%. Further, the Activity in data set [27] is 99.63%.

On to `COc1ccc(Cl)cc1NC(=O)CN1CCN(S(=O)(=O)N2CCC(C)CC2)CC1`, for which, in data set [33], the IC50 came out at 1840 nM.
